These results are taken from ChEMBL document CHEMBL1146296, “Influence of an additional 2-amino substituent of the 1-aminoethyl pharmacophore group on the potency of rimantadine against influenza virus A” (Bioorg Med Chem Lett, 2007).

The subject of one data set is MDCK. Description: Cytotoxicity against MDCK cells. The data set is classed as cell-based, Canis lupus familiaris. The note with it: dog.
The next data set deals with Influenza B virus. The data set can be described thus: Antiviral activity against influenza B virus. In kind it is functional, organism-based.
In data set [1] the test system is Influenza A virus. The data set can be described thus: Antiviral activity against influenza A virus (H3N2) assessed as inhibition of viral replication. In kind it is functional, organism-based.
The subject of data set [2] is Influenza A virus. The data set can be described thus: Antiviral activity against influenza A virus (H3N2)-induced cytopathogenicity in MDCK cells by MTS method. The data set is classed as functional, organism-based. In general terms: Damage to the host cells serves as the signal in cytopathic effect assays.

Structures are written as SMILES. Active and inactive are the calls of the source. The rule behind the calls is not given here.

A word on the EC50: it is the concentration at which the effect is half-maximal. Read a high EC50 as lower potency in that assay. In the case of `CNC(CN)C12CC3CC(CC(C3)C1)C2.O=C(O)/C=C\C(=O)O` (stereo not drawn), the MTC in the data set with MDCK is above 568 µM. The outcome in the data set on Influenza B virus was inactive. Also, in the data set with Influenza A virus [1], the outcome was Active. Further, in the data set on Influenza A virus [2], the EC50 was found to be 56.8 µM.
`O=C1CNC(C23CC4CC(CC(C4)C2)C3)CN1` (stereo not drawn) gave an MTC in the data set on MDCK above 1067 µM. Also, in the data set with Influenza B virus, the result was inactive. The result with Influenza A virus [1] was Active. The same molecule returned an EC50 in the data set on Influenza A virus [2] of 91.8 µM.
For the molecule `CC(N)C12CC3CC(CC(C3)C1)C2.Cl` (stereo not drawn) [RIMANTADINE HYDROCHLORIDE], the MTC with MDCK is above 1160 µM. Besides, a half-maximal response in the data set on Influenza A virus [2] (EC50) required 19.1 µM.
In the data set on MDCK, `C1CCC(C23CC4CC(CC(C4)C2)C3)NC1.Cl` (stereo not drawn) showed an MTC of 978 µM. Also, in the data set with Influenza A virus [2], the EC50 stood at 70.5 µM.
With `C1CNC(C23CC4CC(CC(C4)C2)C3)CN1.O=C(O)/C=C\C(=O)O` (stereo not drawn), in the data set on MDCK, the MTC was above 553 µM. Besides, in the data set on Influenza B virus, the outcome was inactive. In addition, in the data set with Influenza A virus [1], the result was Active. For the same molecule, a half-maximal effect in the data set with Influenza A virus [2] (EC50) was put at 24.1 µM.
Consider `C1CNC(C23CC4CC(CC(C4)C2)C3)C1.Cl` (stereo not drawn), for which, in the data set with MDCK, the MTC is 1035 µM. This molecule returned an EC50 in the data set with Influenza A virus [2] of 51.3 µM.
In the data set on MDCK, `Cl.NC12CC3CC(CC(C3)C1)C2` [AMANTADINE HYDROCHLORIDE] yielded an MTC above 1333 µM. Moreover, the response with Influenza A virus [2] was half-maximal at 49.1 µM (EC50).
With `CN1C(=O)NCC1C12CC3CC(CC(C3)C1)C2` (stereo not drawn), the MTC with MDCK is above 1067 µM. Besides, the result in the data set with Influenza B virus was inactive. In the data set on Influenza A virus [2], this molecule gave an EC50 of 269 µM.
In the data set on MDCK, `O=C1NCC(C23CC4CC(CC(C4)C2)C3)N1` (stereo not drawn) gave an MTC above 1135 µM. Besides, in the data set with Influenza B virus, the result was inactive. Besides, the outcome in the data set with Influenza A virus [1] was Active. The same molecule gave an EC50 with Influenza A virus [2] of 72.6 µM.
Consider `CN1CCN(C)C(C23CC4CC(CC(C4)C2)C3)C1.O=C(O)/C=C\C(=O)O` (stereo not drawn), for which the MTC in the data set on MDCK was above 520 µM. For the same molecule, the outcome in the data set with Influenza B virus was inactive. In the data set with Influenza A virus [2], this molecule came in with an EC50 of 351 µM.
In the same order, the values of `CN1CCNCC1C12CC3CC(CC(C3)C1)C2.O=C(O)/C=C\C(=O)O` (stereo not drawn) are above 535 µM, “inactive” and 197 µM.
`NCC(N)C12CC3CC(CC(C3)C1)C2.O=C(O)/C=C\C(=O)O` (stereo not drawn) registered an MTC in the data set with MDCK above 586 µM. In the data set with Influenza B virus, the result was inactive. Also, in the data set with Influenza A virus [1], the result was Active. In the data set on Influenza A virus [2], this molecule gave an EC50 of 18.3 µM.
`CN1CC(C23CC4CC(CC(C4)C2)C3)N(C)C1=O` (stereo not drawn) returned an MTC in the data set with MDCK of 1007 µM. Further, the outcome in the data set with Influenza B virus was inactive. Moreover, the concentration giving a half-maximal response (EC50) in the data set with Influenza A virus [2] was 107 µM.
The molecule `CN1CC(=O)NCC1C12CC3CC(CC(C3)C1)C2` (stereo not drawn) showed an MTC in the data set with MDCK above 1007 µM. Moreover, the outcome with Influenza B virus was inactive. A half-maximal effect in the data set with Influenza A virus [2] (EC50) was put at 604 µM.
